Legend:
Test in all cases: competitive isoTOP-ABPP
Type in all cases: binding
[1] = target: T1, TPD52L2 Tumor protein D54 (Homo sapiens, UniProt O43399); design: key to isoTOP-ABPP reactivity ratio at lysine O43399_K90: R = MS1 peak area ratio, DMSO (heavy) / compound-treated (light); conditions: for isoTOP-ABPP ratio (R) at liganded lysine O43399_K90: sol, 231
T1 construct: isoTOP-ABPP experiments performed in cell lysates (in vitro); endogenous in cells; host or cells: MDA-MB-231 soluble lysate
Description: (§1) In vitro covalent fragment treatment for isoTOP-ABPP. All compounds were made up as solutions in DMSO (100×) and were used at a final concentration of 50 μM for activated esters and 100 μM for guanidinylating agents. For each profiling sample, 0.5 ml of lysate was treated with 5 μl of the 100× compound stock solution or 5 μl of DMSO. Samples were treated with activated esters for
(§2) STP-alkyne labeling and click chemistry. For concentration-dependent reactivity measurements by isoTOP-ABPP, 0.5 ml proteome aliquots were treated at ambient temperature with 1 mM STP-alkyne 1 (5 μl of 100 mM stock in DMSO) and 0.1 mM STP alkyne 1 (5 μl of 10 mM stock in DMSO), respectively. For competitive isoTOP-ABPP, after in vitro fragment treatment (detailed above), the samples were labeled for 1 h at ambient temperature with 0.1 mM STP-alkyne 1 (5 μl of 10 mM stock in DMSO). Samples were conjugated by copper-mediated azide-alkyne cycloaddition (CuAAC) to either the light (1 mM STP-alkyne or fragment treated) or heavy (0.1 mM STP-alkyne or DMSO treated) TEV tags (10 μl of 5 mM stocks in DMSO, final concentration=100 μM) using tris(2-carboxyethyl)phosphine hydrochloride
(§3) R value calculation and processing. The ratios of light and heavy MS1 peaks for each unique peptide were quantified with a CIMAGE software using default parameters (3 MS1 acquisitions per peak and signal to noise threshold set to 2.5). For reactivity measurements by isoTOP-ABPP, the R value was calculated from the ratio of MS1 peak areas, comparing the 1 mM STP alkyne sample (light TEV tag) with the 0.1 mM STP alkyne sample (heavy TEV tag). For competitive isoTOP-ABPP, the R value was calculated from the ratio of MS1 peak areas, comparing the DMSO treated sample (heavy TEV tag) with the compound treated sample (light TEV tag). […] Ratios for unique peptide entries are calculated for each experiment; overlapping peptides with the same modified lysine (for example, different charge states, MudPIT chromatographic steps or tryptic termini) are grouped together and the median ratio is reported as the final ratio (R). The peptide ratios reported by CIMAGE were further filtered to ensure the removal or correction of low-quality ratios in each individual data set. The quality filters applied were the following: removal of half tryptic peptides; for ratios with high standard deviations from the median (90% of the median or above) the lowest ratio was taken instead of the median; removal of peptides with R=20 and only a single MS2 event triggered during the elution of the parent ion; manual annotation of all the peptides with ratios of 20, removing any peptides with low quality elution profiles that remained after the previous curation steps (only done for competitive isoTOP-ABPP).
(§4) Cross-data processing for fragment screening. For compound treated samples, biological replicates of the same condition were averaged, if the standard deviation was below 60% of the mean; otherwise, for lysines with at least one R value <4 for a particular compound, the lowest value of the ratio set was taken. For lysines, where all R values for a particular compound were ≥4, the average was reported. For peptides containing several possible modified lysines, the lysine with the highest number of quantification events was used for analysis and the remaining, redundant peptides were reported as alternative modification sites. Peptides included in the aggregate dataset (those used for further bioinformatics and statistical analyses) were required to have been quantified in 2 experiments for competitive isoTOP-ABPP. Lysines were categorized as liganded, if they had at least one ratio R≥4 (hit fragments). For liganded lysines with R=20 for all liganding events, lysines were required to have been quantified with R=20 in two separate experiments and were further required to have been quantified with R<20 in one additional experiment.

HK1 Hexokinase-1 = target: T2, HK1 Hexokinase-1 (Homo sapiens, UniProt P19367); design: key to isoTOP-ABPP reactivity ratio at lysine P19367_K510: R = MS1 peak area ratio, DMSO (heavy) / compound-treated (light); conditions: for isoTOP-ABPP ratio (R) at liganded lysine P19367_K510: sol, 231
T2 construct: isoTOP-ABPP experiments performed in cell lysates (in vitro); endogenous in cells; host or cells: soluble proteome of human cancer cell lines (MDA-MB-231; Ramos and Jurkat also prepared)
T2 sequence (P19367 1-917): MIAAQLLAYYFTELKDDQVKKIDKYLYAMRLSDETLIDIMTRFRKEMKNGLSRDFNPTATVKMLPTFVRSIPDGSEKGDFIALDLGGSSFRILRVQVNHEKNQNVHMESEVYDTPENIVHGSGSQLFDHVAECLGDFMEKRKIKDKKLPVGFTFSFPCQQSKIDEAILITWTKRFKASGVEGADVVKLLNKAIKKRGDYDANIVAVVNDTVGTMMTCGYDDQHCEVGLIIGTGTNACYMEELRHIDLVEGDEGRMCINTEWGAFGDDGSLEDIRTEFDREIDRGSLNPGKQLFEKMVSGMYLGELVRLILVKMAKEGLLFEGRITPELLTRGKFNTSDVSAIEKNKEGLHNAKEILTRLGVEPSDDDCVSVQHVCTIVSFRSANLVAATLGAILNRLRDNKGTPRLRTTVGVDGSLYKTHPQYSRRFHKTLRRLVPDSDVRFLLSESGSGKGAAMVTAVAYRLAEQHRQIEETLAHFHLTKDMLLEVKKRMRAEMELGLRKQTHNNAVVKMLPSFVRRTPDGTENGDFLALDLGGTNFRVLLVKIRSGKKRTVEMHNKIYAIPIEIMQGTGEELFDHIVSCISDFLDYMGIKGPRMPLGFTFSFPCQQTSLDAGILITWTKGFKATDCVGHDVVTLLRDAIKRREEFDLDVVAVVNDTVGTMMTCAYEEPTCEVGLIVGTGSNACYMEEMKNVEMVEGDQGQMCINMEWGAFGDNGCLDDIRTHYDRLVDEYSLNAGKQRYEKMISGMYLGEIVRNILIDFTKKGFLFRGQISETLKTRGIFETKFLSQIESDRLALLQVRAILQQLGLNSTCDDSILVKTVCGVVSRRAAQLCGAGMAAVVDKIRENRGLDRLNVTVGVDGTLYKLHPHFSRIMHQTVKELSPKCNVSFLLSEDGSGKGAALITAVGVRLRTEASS
Description: as §1, §2, §3, §4

[2] = target: T3, TPMT Thiopurine S-methyltransferase (Homo sapiens, UniProt P51580); design: key to isoTOP-ABPP reactivity ratio at lysine P51580_K32: R = MS1 peak area ratio, DMSO (heavy) / compound-treated (light); conditions: for isoTOP-ABPP ratio (R) at liganded lysine P51580_K32: sol, 231
T3 construct: isoTOP-ABPP experiments performed in cell lysates (in vitro); endogenous in cells; host or cells: soluble proteome of human cancer cell lines (MDA-MB-231; Ramos and Jurkat also prepared)
T3 sequence (P51580 1-245): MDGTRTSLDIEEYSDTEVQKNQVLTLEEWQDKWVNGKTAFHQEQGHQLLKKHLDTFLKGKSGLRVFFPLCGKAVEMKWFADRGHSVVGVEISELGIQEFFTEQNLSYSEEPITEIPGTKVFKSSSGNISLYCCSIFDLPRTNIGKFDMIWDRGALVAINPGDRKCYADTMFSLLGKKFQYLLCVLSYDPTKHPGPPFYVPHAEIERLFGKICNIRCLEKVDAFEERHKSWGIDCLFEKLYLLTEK
Description: as §1, §2, §3, §4

T1 sequence (O43399 whole entry): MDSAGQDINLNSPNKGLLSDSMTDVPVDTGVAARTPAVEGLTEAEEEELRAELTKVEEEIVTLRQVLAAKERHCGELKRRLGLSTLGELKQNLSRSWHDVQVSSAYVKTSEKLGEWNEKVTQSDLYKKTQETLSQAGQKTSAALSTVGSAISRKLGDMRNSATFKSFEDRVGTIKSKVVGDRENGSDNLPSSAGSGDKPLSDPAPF

Question: `O=C(CCc1coc2cc(F)ccc2c1=O)Oc1ccc([N+](=O)[O-])cc1[N+](=O)[O-]` [fragment 36, 2,4-Dinitrophenyl 3-(7-fluoro-4-oxo-4H-chromen-3-yl)propanoate] was tested. Which “isoTOP-ABPP ratio (R) at liganded lysine O43399_K90” value ([1]; 50 uM, in vitro) did it give?
Answer: 1.3

Question: What about the “isoTOP-ABPP ratio (R) at liganded lysine P19367_K510” value (HK1 Hexokinase-1; 50 uM, in vitro) of the same compound?
Answer: 3.7

Question: And the “isoTOP-ABPP ratio (R) at liganded lysine P51580_K32” value ([2]; 50 uM, in vitro)?
Answer: 3.4

Question: For `O=C(Oc1ccc([N+](=O)[O-])cc1[N+](=O)[O-])C(c1ccccc1)(c1ccccc1)c1ccccc1` [fragment 42, 2,4-Dinitrophenyl 2,2,2-triphenylacetate], which “isoTOP-ABPP ratio (R) at liganded lysine O43399_K90” value ([1]; 50 uM, in vitro) is on record?
Answer: 1.0

Question: And the “isoTOP-ABPP ratio (R) at liganded lysine P19367_K510” value (HK1 Hexokinase-1; 50 uM, in vitro)?
Answer: 0.8

Question: What about the “isoTOP-ABPP ratio (R) at liganded lysine P51580_K32” value ([2]; 50 uM, in vitro) of the same compound?
Answer: 0.9

Question: For `O=C(CCc1coc2cc(F)ccc2c1=O)Oc1c(F)c(F)c(F)c(F)c1F` [fragment 26, Pentafluorophenyl 3-(7-fluoro-4-oxo-4H-chromen-3-yl)propanoate], which “isoTOP-ABPP reactivity ratio at lysine O43399_K90” value ([1]; 50 uM, 231 sol, in vitro) is on record?
Answer: 1.3

Question: And the “isoTOP-ABPP reactivity ratio at lysine P19367_K510” value (HK1 Hexokinase-1; 50 uM, 231 sol, in vitro)?
Answer: 3.4

Question: What about the “isoTOP-ABPP reactivity ratio at lysine P51580_K32” value ([2]; 50 uM, 231 sol, in vitro) of the same compound?
Answer: 1.0

Question: With `O=C(Oc1ccc([N+](=O)[O-])cc1[N+](=O)[O-])c1ccccc1Nc1cccc(C(F)(F)F)c1` [fragment 40, 2,4-Dinitrophenyl 2-((3-(trifluoromethyl)phenyl)amino)benzoate] as the compound, how does the “isoTOP-ABPP ratio (R) at liganded lysine O43399_K90” value ([1]; 50 uM, in vitro) read?
Answer: 1.2

Question: What about the “isoTOP-ABPP ratio (R) at liganded lysine P51580_K32” value ([2]; 50 uM, in vitro) of the same compound?
Answer: 1.1

Question: Which results are given for `O=C(Oc1ccc([N+](=O)[O-])cc1[N+](=O)[O-])C1CCN(C(=O)OCc2ccccc2)CC1` [fragment 34, 1-Benzyl 4-(2,4-dinitrophenyl) piperidine-1,4-dicarboxylate]?
Answer: isoTOP-ABPP ratio (R) at liganded lysine O43399_K90 ([1]; 50 uM, in vitro): 1.8; isoTOP-ABPP ratio (R) at liganded lysine P19367_K510 (HK1 Hexokinase-1; 50 uM, in vitro): 20.0; isoTOP-ABPP ratio (R) at liganded lysine P51580_K32 ([2]; 50 uM, in vitro): 1.6

Question: How did the “R value (DMSO/fragment) for probe 1 labeling” value (“R value (DMSO/fragment)” for short) ([1]; O43399_K90, 50 uM, 231 sol, in vitro) turn out when `Cn1cc(CC(=O)Oc2c(F)c(F)c(F)c(F)c2F)c2ccccc21` [fragment 22, Pentafluorophenyl 2-(1-methyl-1H-indol-3-yl)acetate] was run?
Answer: 3.6

Question: What about the “R value (DMSO/fragment)” value (HK1 Hexokinase-1; P19367_K510, 50 uM, 231 sol, in vitro) of the same compound?
Answer: 1.3

Question: What about the “R value (DMSO/fragment)” value ([2]; P51580_K32, 50 uM, 231 sol, in vitro) of the same compound?
Answer: 1.3

Question: Which results are given for `O=C(Oc1c(F)c(F)c(C(F)(F)F)c(F)c1F)c1cc(C(F)(F)F)cc(C(F)(F)F)c1` [fragment 47, 2,3,5,6-Tetrafluoro-4-(trifluoromethyl)phenyl 3,5-bis(trifluoromethyl)benzoate]?
Answer: isoTOP-ABPP ratio, lysine O43399_K90 ([1]; 50 uM_231_sol_in vitro): 2.0; isoTOP-ABPP ratio, lysine P19367_K510 (HK1 Hexokinase-1; 50 uM_231_sol_in vitro): 0.9; isoTOP-ABPP ratio, lysine P51580_K32 ([2]; 50 uM_231_sol_in vitro): 9.5

Question: Which results are given for `O=C(CC12CC3CC(CC(C3)C1)C2)Oc1ccc([N+](=O)[O-])cc1[N+](=O)[O-]` [fragment 38, 2,4-Dinitrophenyl 2-(adamantan-1-yl)acetate]?
Answer: isoTOP-ABPP ratio (R) at liganded lysine O43399_K90 ([1]; 50 uM, in vitro): 2.9; isoTOP-ABPP ratio (R) at liganded lysine P19367_K510 (HK1 Hexokinase-1; 50 uM, in vitro): 1.7; isoTOP-ABPP ratio (R) at liganded lysine P51580_K32 ([2]; 50 uM, in vitro): 1.1

Source: patent US20210255193A1, “LYSINE REACTIVE PROBES AND USES THEREOF” (The Scripps Research Institute, priority 2017, published 2021)
